Laboratory results: paper PMC12797170, “Potent Competitive Inhibitors of Ecto-5′-nucleotidase (CD73) based on 6‑(Het)aryl-7-deazapurine Ribonucleoside 5′‑O‑Bisphosphonates” (ACS Pharmacology & Translational Science, 2025)
Values after ≈ are worked out from the molar mass of the structure shown.

What was measured:
[1] = target: T1, recombinant human CD73 (hCD73) (Homo sapiens, UniProt P21589); experiment: CD73 activity assay on recombinant human CD73; assay type: biochemical; conditions: ΔGexp = RT ln Ki
T1 sequence (P21589 27-574): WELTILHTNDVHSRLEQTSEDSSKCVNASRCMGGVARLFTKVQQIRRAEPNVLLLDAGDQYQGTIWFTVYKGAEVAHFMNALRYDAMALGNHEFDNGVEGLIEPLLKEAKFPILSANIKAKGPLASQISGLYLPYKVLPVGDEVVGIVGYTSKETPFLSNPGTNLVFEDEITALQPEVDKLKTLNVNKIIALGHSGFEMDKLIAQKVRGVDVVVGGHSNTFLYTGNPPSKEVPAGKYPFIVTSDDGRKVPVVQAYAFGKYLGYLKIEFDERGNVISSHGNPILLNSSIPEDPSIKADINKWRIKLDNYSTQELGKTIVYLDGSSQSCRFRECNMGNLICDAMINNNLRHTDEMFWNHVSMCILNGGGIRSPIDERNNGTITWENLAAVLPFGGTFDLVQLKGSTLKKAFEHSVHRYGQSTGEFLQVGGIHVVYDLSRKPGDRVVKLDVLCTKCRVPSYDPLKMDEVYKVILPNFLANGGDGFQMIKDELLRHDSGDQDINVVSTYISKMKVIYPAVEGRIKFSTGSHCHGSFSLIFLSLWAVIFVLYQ

[2] = Plasma protein binding, mouse plasma; assay type: in vitro ADME; conditions: mouse, plasma, mouse plasma protein binding; read-out: PPB (m) (converted)
Method: (§1) Plasma protein binding of the investigated compounds was determined using equilibrium dialysis in single-use Rapid Equilibrium Dialysis devices with an 8 kDa molecular weight cutoff (Thermo Fisher Scientific), following the manufacturer’s protocol. In brief, 50 μL of undiluted human plasma (Biowest), spiked with the test compound at a final concentration of 100 μM, was added to the sample chamber, while 300 μL of phosphate-buffered saline (PBS) was placed in the buffer chamber. Devices were incubated for 4 h at 37 °C with gentle shaking.
(§2) After dialysis, 7.5 μL aliquots from both the plasma and buffer chambers were transferred directly into wells of a 384-well plate. To equalize the matrices for downstream processing, 7.5 μL of PBS was added to each plasma aliquot, and 7.5 μL of plasma was added to each buffer aliquot. Proteins were precipitated by adding four volumes of ice-cold methanol to each well, followed by thorough mixing and incubation at – 20 °C for 30 min. Plates were then stored overnight at 8 °C. Prior to analysis, the plate was centrifuged at 2,000 × g for 20 min at 8 °C. […] The fraction of unbound compound was calculated using the following equations: %Free=c(bufferchamber)/c(plasmachamber)*100% %Bound=100%−%Free

HepG2 = experiment: In vitro cytotoxic activity; assay type: cell-based; conditions: Homo sapiens
Method: (§3) All the compounds were also tested for their in vitro cytotoxic activity on a small panel of four cancer cell lines (CCRF-CEM, HepG2, HeLa S3, HL-60) and nonmalignant human dermal fibroblasts (NHDF).

CCRF-CEM = experiment: In vitro cytotoxic activity; assay type: cell-based; conditions: Homo sapiens
Method: as §3

[3] = system: nonmalignant human dermal fibroblasts (NHDF); experiment: In vitro cytotoxic activity; assay type: cell-based
Method: as §3

HeLa S3 = experiment: In vitro cytotoxic activity; assay type: cell-based; conditions: Homo sapiens
Method: as §3

HL-60 = experiment: In vitro cytotoxic activity; assay type: cell-based; conditions: Homo sapiens
Method: as §3

[4] = Microsomal stability assay, mouse liver microsomes; assay type: in vitro ADME; conditions: for Mics (m) comp remaining 60 min: 10 μM; for microsomal CLint at 10 µM: pooled liver microsomes, pH 7.4, read-out: Mics (m) CLint
in vitro [5] = conditions: human, plasma
[6] = Kinetic solubility in PBS; assay type: physicochemical; conditions: phosphate-buffered saline, pH 7.4, aqueous buffer, kinetic from dmso stock
Method: Test compounds were prepared as 10 mM stock solutions in DMSO and diluted in phosphate-buffered saline (PBS, pH 7.4) to a 100 μM solution, which was then aliquoted in duplicate. The duplicate samples were incubated in Multiscreen PCF Filter Plates (Merck Millipore) with sealed bottom at room temperature on a shaker for 2 h to allow equilibration. Following incubation, the samples were centrifuged into nonsterile, flat-bottom 96-well plates at 2,200 RCF for 12 min. Supernatants were then diluted 1:99 in a solution of 50% acetonitrile containing 0.1% DMSO. The diluted samples were transferred to 384-well Echo plates, which contained prespotted calibration standards prepared by Echo transfer of 10 mM and 1 mM DMSO stock solutions, resulting in calibration points ranging from 0.05 to 4 μM. Samples and standards were subsequently analyzed by Echo-MS.

in vitro [7] = conditions: mouse, plasma
[8] = Plasma protein binding, equilibrium dialysis, human plasma; assay type: in vitro ADME; conditions: undiluted plasma, human plasma protein binding, read-out: PPB (hu) (converted)
Method: as §1, §2

[9] = Microsomal stability assay, human liver microsomes; assay type: in vitro ADME; conditions: for Mics (hu) comp remaining 60 min: 10 μM; for microsomal CLint at 10 µM: pooled liver microsomes, pH 7.4, read-out: Mics (hu) CLint

dG_exp, experimental binding free energy [1]	fraction unbound at 4 h, 100 µM [2]	Mics (m) comp remaining 60 min [4]	microsomal CLint at 10 µM [4]	half-life at 10 µM (in vitro [5])	solubility at 2 h [6]	half-life at 10 µM (in vitro [7])	fraction unbound at 4 h, 100 µM [8]	Mics (hu) comp remaining 60 min [9]	microsomal CLint at 10 µM [9]	SMILES	IC50 (HepG2)	IC50 (CCRF-CEM)	IC50 [3]	IC50 (HeLa S3)	IC50 (HL-60)
–13.1 kcal/mol	0.622	103%	< 1 µL/min/mg	> 2 h	> 100 µM	> 2 h	0.224	107%	< 1 µL/min/mg	Nc1nc(-c2ccco2)c2ccn([C@@H]3O[C@H](COP(=O)(O)CP(=O)(O)O)[C@@H](O)[C@H]3O)c2n1 [11C.1, [(5-{[2-Amino-4-(furan-2-yl)-7H-pyrrolo[2,3-d]pyrimidin-7-yl]-β-D-ribofuranosyl}oxy)phosphonomethyl]phosphonic Acid]	> 10 µM	> 10 µM	> 10 µM	> 10 µM	> 10 µM
–13.8 kcal/mol	0.305	97%	2 µL/min/mg	> 2 h	> 100 µM	> 2 h	0.037	100%	< 1 µL/min/mg	Nc1nc(-c2ccc3ccccc3c2)c2ccn([C@@H]3O[C@H](COP(=O)(O)CP(=O)(O)O)[C@@H](O)[C@H]3O)c2n1 [11C.7]	> 10 µM	> 10 µM	> 10 µM	> 10 µM	> 10 µM
–13.9 kcal/mol	0.391	97%	2 µL/min/mg	> 2 h	87 µM (≈ 47 µg/mL)	> 2 h	0.058	100%	< 1 µL/min/mg	Nc1nc(-c2cc3ccccc3o2)c2ccn([C@@H]3O[C@H](COP(=O)(O)CP(=O)(O)O)[C@@H](O)[C@H]3O)c2n1 [11C.8]	> 10 µM	> 10 µM	> 10 µM	> 10 µM	> 10 µM
–13.9 kcal/mol	0.445	100%	< 1 µL/min/mg	> 2 h	88 µM (≈ 48.8 µg/mL)	> 2 h	0.157	101%	< 1 µL/min/mg	Nc1nc(-c2cccc3c2CCCC3)c2ccn([C@@H]3O[C@H](COP(=O)(O)CP(=O)(O)O)[C@@H](O)[C@H]3O)c2n1 [11C.12]	> 10 µM	> 10 µM	> 10 µM	> 10 µM	> 10 µM

Further lines, the molecule ahead of its results:

SMILES	dG_exp, experimental binding free energy [1]	fraction unbound at 4 h, 100 µM [2]	Mics (m) comp remaining 60 min [4]	microsomal CLint at 10 µM [4]	half-life at 10 µM (in vitro [5])	solubility at 2 h [6]	half-life at 10 µM (in vitro [7])	fraction unbound at 4 h, 100 µM [8]	Mics (hu) comp remaining 60 min [9]	microsomal CLint at 10 µM [9]	IC50 (HepG2)	IC50 (CCRF-CEM)	IC50 [3]	IC50 (HeLa S3)	IC50 (HL-60)
O=P(O)(O)CP(=O)(O)OC[C@H]1O[C@@H](n2ccc3c(-c4ccc5cc(OCc6ccccc6)ccc5c4)nc(Cl)nc32)[C@H](O)[C@@H]1O [7B.31]	–14.1 kcal/mol	≤ 0.01	134%	< 2 µL/min/mg	> 2 h	> 100 µM	> 2 h	≤ 0.01	147%	< 2 µL/min/mg	> 10 µM	> 10 µM	> 10 µM	> 10 µM	> 10 µM
Nc1ccc(-c2nc(Cl)nc3c2ccn3[C@@H]2O[C@H](COP(=O)(O)CP(=O)(O)O)[C@@H](O)[C@H]2O)c2ccccc12 [7B.33]	–14.1 kcal/mol	0.374		< 2 µL/min/mg	> 2 h	> 100 µM	> 2 h	≤ 0.01	109%	< 2 µL/min/mg	7.9 µM	9.6 µM	8.8 µM	8.7 µM	9.1 µM
COc1ccc2cc(-c3nc(Cl)nc4c3ccn4[C@@H]3O[C@H](COP(=O)(O)CP(=O)(O)O)[C@@H](O)[C@H]3O)ccc2c1 [7B.35]	–15.4 kcal/mol	0.088	103%	< 2 µL/min/mg	> 2 h	84 µM (≈ 50.4 µg/mL)	> 2 h	≤ 0.01	106%	< 2 µL/min/mg	> 10 µM	> 10 µM	> 10 µM	> 10 µM	> 10 µM
O=P(O)(O)CP(=O)(O)OC[C@H]1O[C@@H](n2ccc3c(-c4ccco4)nc(F)nc32)[C@H](O)[C@@H]1O [14D.1, [(5-{[2-Fluoro-4-(furan-2-yl)-7H-pyrrolo[2,3-d]pyrimidin-7-yl]-β-D-ribofuranosyl}oxy)phosphonomethyl]phosphonic Acid]	–13.4 kcal/mol	0.664	96%	1 µL/min/mg	> 2 h	80 µM (≈ 39.5 µg/mL)	> 2 h	0.045	103%	< 1 µL/min/mg	> 10 µM	> 10 µM	> 10 µM	> 10 µM	> 10 µM
O=P(O)(O)CP(=O)(O)OC[C@H]1O[C@@H](n2ccc3c(-c4ccc5ccccc5c4)nc(F)nc32)[C@H](O)[C@@H]1O [14D.7]	–14.2 kcal/mol	0.183	105%	< 1 µL/min/mg	> 2 h	85 µM (≈ 47 µg/mL)	> 2 h	0.024	112%	< 1 µL/min/mg	> 10 µM	> 10 µM	> 10 µM	> 10 µM	> 10 µM
O=P(O)(O)CP(=O)(O)OC[C@H]1O[C@@H](n2ccc3c(-c4cc5ccccc5o4)nc(F)nc32)[C@H](O)[C@@H]1O [14D.8]	–14.3 kcal/mol	0.286		< 1 µL/min/mg	> 2 h	76 µM (≈ 41.3 µg/mL)	> 2 h	0.008	107%	< 1 µL/min/mg	> 10 µM	> 10 µM	> 10 µM	> 10 µM	> 10 µM
